Measurements as given in patent US9539252B2, “Piperazine-substituted benzothiophene derivatives as antipsychotic agents” (OTSUKA PHARMACEUTICAL CO., LTD., priority 2011, dated 2017).

Test: Solubility in oil (sesame oil, benzyl benzoate), visual observation
Conditions: benzyl benzoate, oil or lipid, thermodynamic from solid
Description: Each of the Example compounds was examined for the solubility in oil (sesame oil, benzyl benzoate).
For the specific gravity of an oil, the following values were applied. • sesame oil (specific gravity: 0.914-0.921) • benzyl benzoate (specific gravity: 1.123) • (Method)
Example compound is measured in a microtube and an oil (sesame oil, or, benzyl benzoate) in an amount to make the concentration 10 mg/0.1 ml is added. After stirring, the solubility is evaluated by visual observation. When the compound is not dissolved, the mixture is heated, and the solubility is evaluated after cooling.

SMILES | solubility
CCCCCCCCCCCCCCCCCCNC(=O)OCN1C(=O)CCc2ccc(OCCCCN3CCN(c4cccc5sccc45)CC3)cc21 [Example 75, N-octadecylcarbamic acid 7-[4-(4-benzo[b]thiophen-4-ylpiperazin-1-yl)butoxy]-2-oxo-3,4-dihydro-2H-quinolin-1-ylmethyl ester] | > 100 mg/mL
C=CCNC(=O)OCn1c(=O)ccc2ccc(OCCCCN3CCN(c4cccc5sccc45)CC3)cc21 [Example 112, N-allylcarbamic acid 7-[4-(4-benzo[b]thiophen-4-ylpiperazin-1-yl)butoxy]-2-oxo-2H-quinolin-1-ylmethyl ester] | > 100 mg/mL
O=C(OCN1C(=O)CCc2ccc(OCCCCN3CCN(c4cccc5sccc45)CC3)cc21)C1CCC1 [Example 127, cyclobutanecarboxylic acid 7-[4-(4-benzo[b]thiophen-4-ylpiperazin-1-yl)butoxy]-2-oxo-3,4-dihydro-2H-quinolin-1-ylmethyl ester] | > 100 mg/mL
CCCCCCCCCCCCCCCCOC(=O)OCN1C(=O)CCc2ccc(OCCCCN3CCN(c4cccc5sccc45)CC3)cc21 [Example 144, carbonic acid 7-[4-(4-benzo[b]thiophen-4-ylpiperazin-1-yl)butoxy]-2-oxo-3,4-dihydro-2H-quinolin-1-ylmethyl ester hexadecyl ester] | > 100 mg/mL
CN(C)C(=O)OCn1c(=O)ccc2ccc(OCCCCN3CCN(c4cccc5sccc45)CC3)cc21 [Example 56, N,N-dimethylcarbamic acid 7-[4-(4-benzo[b]thiophen-4-ylpiperazin-1-yl)butoxy]-2-oxo-2H-quinolin-1-ylmethyl ester] | > 100 mg/mL
CCCCCCCCCCCCCC(=O)OCN1C(=O)CCc2ccc(OCCCCN3CCN(c4cccc5sccc45)CC3)cc21 [Example 82, tetradecanoic acid 7-[4-(4-benzo[b]thiophen-4-ylpiperazin-1-yl)butoxy]-2-oxo-3,4-dihydro-2H-quinolin-1-ylmethyl ester] | > 100 mg/mL
CCCCC(C)(C)C(=O)OCn1c(=O)ccc2ccc(OCCCCN3CCN(c4cccc5sccc45)CC3)cc21 [Example 103, 2,2-dimethylhexanoic acid 7-[4-(4-benzo[b]thiophen-4-ylpiperazin-1-yl)butoxy]-2-oxo-2H-quinolin-1-ylmethyl ester] | > 100 mg/mL
CCCCCCCC(=O)OCN1C(=O)CCc2ccc(OCCCCN3CCN(c4cccc5sccc45)CC3)cc21 [Example 24, octanoic acid 7-[4-(4-benzo[b]thiophen-4-ylpiperazin-1-yl)butoxy]-2-oxo-3,4-dihydro-2H-quinolin-1-ylmethyl ester] | > 100 mg/mL
COC(=O)OCn1c(=O)ccc2ccc(OCCCCN3CCN(c4cccc5sccc45)CC3)cc21 [Example 163, carbonic acid 7-[4-(4-benzo[b]thiophen-4-ylpiperazin-1-yl)butoxy]-2-oxo-2H-quinolin-1-ylmethyl ester methyl ester] | > 100 mg/mL
COC(=O)CNC(=O)OCn1c(=O)ccc2ccc(OCCCCN3CCN(c4cccc5sccc45)CC3)cc21 [Example 64, {7-[4-(4-benzo[b]thiophen-4-ylpiperazin-1-yl)butoxy]-2-oxo-2H-quinolin-1-ylmethoxycarbonylamino}acetic acid methyl ester] | > 100 mg/mL
O=C(OCN1C(=O)CCc2ccc(OCCCCN3CCN(c4cccc5sccc45)CC3)cc21)C1CCCC1 [Example 13, cyclopentanecarboxylic acid 7-[4-(4-benzo[b]thiophen-4-ylpiperazin-1-yl)butoxy]-2-oxo-3,4-dihydro-2H-quinolin-1-ylmethyl ester] | > 100 mg/mL
CCCCCCCCCCCCCCC(=O)OCn1c(=O)ccc2ccc(OCCCCN3CCN(c4cccc5sccc45)CC3)cc21 [Example 104, pentadecanoic acid 7-[4-(4-benzo[b]thiophen-4-ylpiperazin-1-yl)butoxy]-2-oxo-2H-quinolin-1-ylmethyl ester] | > 100 mg/mL
O=C(OCN1C(=O)CCc2ccc(OCCCCN3CCN(c4cccc5sccc45)CC3)cc21)c1ccoc1 [Example 96, furan-3-carboxylic acid 7-[4-(4-benzo[b]thiophen-4-ylpiperazin-1-yl)butoxy]-2-oxo-3,4-dihydro-2H-quinolin-1-ylmethyl ester] | > 100 mg/mL
O=C(OCn1c(=O)ccc2ccc(OCCCCN3CCN(c4cccc5sccc45)CC3)cc21)N1CCSCC1 [Example 153, thiomorpholine-4-carboxylic acid 7-[4-(4-benzo[b]thiophen-4-ylpiperazin-1-yl)butoxy]-2-oxo-2H-quinolin-1-ylmethyl ester] | > 100 mg/mL
CONC(=O)OCn1c(=O)ccc2ccc(OCCCCN3CCN(c4cccc5sccc45)CC3)cc21 [Example 129, N-methoxycarbamic acid (7-{4-[4-(benzo[b]thiophen-4-yl)piperazin-1-yl]butoxy}-2-oxo-2H-quinolin-1-yl)methyl] | > 100 mg/mL
CCCCC(C)(C)C(=O)OCN1C(=O)CCc2ccc(OCCCCN3CCN(c4cccc5sccc45)CC3)cc21 [Example 84, 2,2-dimethylhexanoic acid 7-[4-(4-benzo[b]thiophen-4-ylpiperazin-1-yl)butoxy]-2-oxo-3,4-dihydro-2H-quinolin-1-ylmethyl ester] | > 100 mg/mL

SMILES | solubility
CCCC(C)C(=O)OCn1c(=O)ccc2ccc(OCCCCN3CCN(c4cccc5sccc45)CC3)cc21 (centres unmarked) [Example 94, 2-methylpentanoic acid 7-[4-(4-benzo[b]thiophen-4-ylpiperazin-1-yl)butoxy]-2-oxo-2H-quinolin-1-ylmethyl ester] | > 100 mg/mL
O=C(NOCc1ccccc1)OCN1C(=O)CCc2ccc(OCCCCN3CCN(c4cccc5sccc45)CC3)cc21 [Example 107, benzyloxycarbamic acid 7-[4-(4-benzo[b]thiophen-4-ylpiperazin-1-yl)butoxy]-2-oxo-3,4-dihydro-2H-quinolin-1-ylmethyl ester] | > 100 mg/mL
O=C(OCn1c(=O)ccc2ccc(OCCCCN3CCN(c4cccc5sccc45)CC3)cc21)c1cccs1 [Example 141, thiophene-2-carboxylic acid 7-[4-(4-benzo[b]thiophen-4-ylpiperazin-1-yl)butoxy]-2-oxo-2H-quinolin-1-ylmethyl ester] | > 100 mg/mL
CN(Cc1ccco1)C(=O)OCn1c(=O)ccc2ccc(OCCCCN3CCN(c4cccc5sccc45)CC3)cc21 [Example 125, N-furan-2-ylmethyl-N-methylcarbamic acid 7-[4-(4-benzo[b]thiophen-4-ylpiperazin-1-yl)butoxy]-2-oxo-2H-quinolin-1-ylmethyl ester] | > 100 mg/mL
O=C(OCn1c(=O)ccc2ccc(OCCCCN3CCN(c4cccc5sccc45)CC3)cc21)C1CCCCC1 [Example 32, cyclohexanecarboxylic acid 7-[4-(4-benzo[b]thiophen-4-ylpiperazin-1-yl)butoxy]-2-oxo-2H-quinolin-1-ylmethyl ester] | > 100 mg/mL
COC(=O)CN(C)C(=O)OCn1c(=O)ccc2ccc(OCCCCN3CCN(c4cccc5sccc45)CC3)cc21 [Example 73, ({7-[4-(4-benzo[b]thiophen-4-ylpiperazin-1-yl)butoxy]-2-oxo-2H-quinolin-1-ylmethoxycarbonyl}methylamino)acetic acid methyl ester] | > 100 mg/mL
COCCNC(=O)OCn1c(=O)ccc2ccc(OCCCCN3CCN(c4cccc5sccc45)CC3)cc21 [Example 109, N-(2-methoxyethyl)carbamic acid 7-[4-(4-benzo[b]thiophen-4-ylpiperazin-1-yl)butoxy]-2-oxo-2H-quinolin-1-ylmethyl ester] | > 100 mg/mL
O=C(NCC1CCCCC1)OCN1C(=O)CCc2ccc(OCCCCN3CCN(c4cccc5sccc45)CC3)cc21 [Example 29, N-cyclohexylmethylcarbamic acid 7-[4-(4-benzo[b]thiophen-4-ylpiperazin-1-yl)butoxy]-2-oxo-3,4-dihydro-2H-quinolin-1-ylmethyl ester] | > 100 mg/mL
CN(Cc1ccccn1)C(=O)OCn1c(=O)ccc2ccc(OCCCCN3CCN(c4cccc5sccc45)CC3)cc21 [Example 152, N-methyl-N-pyridin-2-ylmethylcarbamic acid 7-[4-(4-benzo[b]thiophen-4-ylpiperazin-1-yl)butoxy]-2-oxo-2H-quinolin-1-ylmethyl ester] | > 100 mg/mL
CCCCCCCCCCCCCCCCCC(=O)OCN1C(=O)CCc2ccc(OCCCCN3CCN(c4cccc5sccc45)CC3)cc21 [Example 48, octadecanoic acid 7-[4-(4-benzo[b]thiophen-4-ylpiperazin-1-yl)butoxy]-2-oxo-3,4-dihydro-2H-quinolin-1-ylmethyl ester] | > 100 mg/mL
O=C(NOCc1ccccc1)OCn1c(=O)ccc2ccc(OCCCCN3CCN(c4cccc5sccc45)CC3)cc21 [Example 69, 7-[4-(4-benzo[b]thiophen-4-ylpiperazin-1-yl)butoxy]-2-oxo-2H-quinolin-1-ylmethyl benzyloxycarbamate] | > 100 mg/mL
CCCCCCCCCCNC(=O)OCN1C(=O)CCc2ccc(OCCCCN3CCN(c4cccc5sccc45)CC3)cc21 [Example 17, N-decylcarbamic acid 7-[4-(4-benzo[b]thiophen-4-ylpiperazin-1-yl)butoxy]-2-oxo-3,4-dihydro-2H-quinolin-1-ylmethyl ester] | > 100 mg/mL
CCCCCC(=O)OCn1c(=O)ccc2ccc(OCCCCN3CCN(c4cccc5sccc45)CC3)cc21 [Example 58, hexanoic acid 7-[4-(4-benzo[b]thiophen-4-ylpiperazin-1-yl)butoxy]-2-oxo-2H-quinolin-1-ylmethyl ester] | > 100 mg/mL
CCCCN(CCCC)C(=O)OCN1C(=O)CCc2ccc(OCCCCN3CCN(c4cccc5sccc45)CC3)cc21 [Example 28, N,N-dibutylcarbamic acid 7-[4-(4-benzo[b]thiophen-4-ylpiperazin-1-yl)butoxy]-2-oxo-3,4-dihydro-2H-quinolin-1-ylmethyl ester] | > 100 mg/mL
CCN(CC)C(=O)Oc1ccc2ccc(OCCCCN3CCN(c4cccc5sccc45)CC3)cc2n1 [Example 382, 7-[4-(4-benzo[b]thiophen-4-yl-piperazin-1-yl)-butoxy]-quinolin-2-yl diethylcarbamate] | > 100 mg/mL

Same assay, conditions: sesame oil, oil or lipid, thermodynamic from solid

SMILES | solubility
CCCCCCCCCCCCCCCCCCNC(=O)OCN1C(=O)CCc2ccc(OCCCCN3CCN(c4cccc5sccc45)CC3)cc21 [Example 75, N-octadecylcarbamic acid 7-[4-(4-benzo[b]thiophen-4-ylpiperazin-1-yl)butoxy]-2-oxo-3,4-dihydro-2H-quinolin-1-ylmethyl ester] | > 100 mg/mL
CCCCCCCCCCCCCCCCOC(=O)OCN1C(=O)CCc2ccc(OCCCCN3CCN(c4cccc5sccc45)CC3)cc21 [Example 144, carbonic acid 7-[4-(4-benzo[b]thiophen-4-ylpiperazin-1-yl)butoxy]-2-oxo-3,4-dihydro-2H-quinolin-1-ylmethyl ester hexadecyl ester] | > 100 mg/mL
CCCCCCCCCCNC(=O)OCN1C(=O)CCc2ccc(OCCCCN3CCN(c4cccc5sccc45)CC3)cc21 [Example 17, N-decylcarbamic acid 7-[4-(4-benzo[b]thiophen-4-ylpiperazin-1-yl)butoxy]-2-oxo-3,4-dihydro-2H-quinolin-1-ylmethyl ester] | > 100 mg/mL
CCCCN(CCCC)C(=O)OCN1C(=O)CCc2ccc(OCCCCN3CCN(c4cccc5sccc45)CC3)cc21 [Example 28, N,N-dibutylcarbamic acid 7-[4-(4-benzo[b]thiophen-4-ylpiperazin-1-yl)butoxy]-2-oxo-3,4-dihydro-2H-quinolin-1-ylmethyl ester] | > 100 mg/mL
